Experimental data taken from patent US10106534B2 (CELGENE QUANTICEL RESEARCH, INC., priority 2014, dated 2018).

Experiments:
[1] = test system: KYSE-150 esophageal carcinoma cell line; assay: In vitro cell-based assay: cellular proliferation via BrdU incorporation (ELISA); set-up: species or system human; settings: Homo sapiens, KYSE-150, 168 hours compound incubation
Summary of the method: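 BrdU incorporation during S-phase, detected colorimetrically at 450 nm by peroxidase ELISA, measured proliferation after 168 h compound exposure.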

JMJD2C = JMJD2C (Homo sapiens (Human), UniProt Q9H3R0); assay: In vitro enzyme inhibition assay for JMJD2C activity (TR-FRET); type: biochemical
Summary of the method: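 Demethylation product H3K9me2 quantified by TR-FRET ratio 665/615 after EDTA stop and 1 h with Eu-anti-H3K9me2 and streptavidin-APC; IC50 by curve fit. Reaction: 0.3 nM JMJD2C (AA 2-372, baculovirus), 2 μM α-ketoglutarate, 300 nM biotin-H3K9me3 peptide, pH 7.3 HEPES with Fe(II)/ascorbate, 30 min room temperature.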

JMJD2C, sequence (Q9H3R0 2-372): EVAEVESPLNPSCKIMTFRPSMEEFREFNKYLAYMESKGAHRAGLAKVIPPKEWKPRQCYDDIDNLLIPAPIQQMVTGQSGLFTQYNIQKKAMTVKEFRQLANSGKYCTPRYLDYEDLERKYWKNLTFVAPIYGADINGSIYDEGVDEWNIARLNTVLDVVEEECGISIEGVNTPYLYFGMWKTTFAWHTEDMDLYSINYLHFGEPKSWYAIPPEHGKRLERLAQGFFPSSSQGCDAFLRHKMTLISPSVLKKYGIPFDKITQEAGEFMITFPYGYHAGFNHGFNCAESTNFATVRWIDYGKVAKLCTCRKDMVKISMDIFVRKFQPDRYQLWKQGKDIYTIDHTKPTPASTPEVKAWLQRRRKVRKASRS

Structure (SMILES): N#Cc1ccccc1-c1ccc2c(c1)OCC[C@H]2CNc1cnccc1C(=O)O [Example 124, 3-({[(4R)-7-(2-cyanophenyl)-3,4-dihydro-2H-1-benzopyran-4-yl]methyl}amino)pyridine-4-carboxylic acid]
- IC50 [1]: 1 to 10 µM
- IC50 (JMJD2C): 0.1 to 1 µM

Structure (SMILES): O=C(O)c1ccncc1NCC1CCOc2cc(Sc3cccs3)ccc21 (stereo not drawn) [Example 49, 3-({[7-(thiophen-2-ylsulfanyl)-3,4-dihydro-2H-1-benzopyran-4-yl]methyl}amino)pyridine-4-carboxylic acid]
- IC50 [1]: 1 to 10 µM
- IC50 (JMJD2C): 0.1 to 1 µM

Structure (SMILES): COCCOc1ccc(N(C)c2ccc3c(c2)CCC[C@H]3CNc2cnccc2C(=O)O)cc1 [Example 197, 3-({[(1R)-6-{[4-(2-methoxyethoxy)phenyl](methyl)amino}-1,2,3,4-tetrahydronaphthalen-1-yl]methyl}amino)pyridine-4-carboxylic acid]
- IC50 [1]: ≤ 0.1 µM
- IC50 (JMJD2C): 0.1 to 1 µM

Structure (SMILES): CN(c1ccc2c(c1)CCC[C@H]2CNc1cnccc1C(=O)O)c1cccs1 [Example 144, 3-({[(1R)-6-[methyl(thiophen-2-yl)amino]-1,2,3,4-tetrahydronaphthalen-1-yl]methyl}amino)pyridine-4-carboxylic acid]
- IC50 [1]: ≤ 0.1 µM
- IC50 (JMJD2C): 0.1 to 1 µM

Structure (SMILES): COCCN(c1ccc(C2CC2)cc1)c1ccc2c(c1)CCC[C@H]2CNc1cnccc1C(=O)O [Example 163, 3-({[(1R)-6-[(4-cyclopropylphenyl)(2-methoxyethyl)amino]-1,2,3,4-tetrahydronaphthalen-1-yl]methyl}amino)pyridine-4-carboxylic acid]
- IC50 [1]: ≤ 0.1 µM
- IC50 (JMJD2C): 1 to 10 µM

Structure (SMILES): CN(c1ccc2c(c1)OCC[C@H]2CNc1cnccc1C(=O)O)c1ccccc1F [Example 19, 3-({[(4R)-7-[(2-fluorophenyl)(methyl)amino]-3,4-dihydro-2H-1-benzopyran-4-yl]methyl}amino)pyridine-4-carboxylic acid]
- IC50 [1]: ≤ 0.1 µM
- IC50 (JMJD2C): 0.1 to 1 µM

Structure (SMILES): O=C(O)c1ccncc1NCC1CCCc2cc(N3CCc4ccccc43)ccc21 (stereo not drawn) [Example 5, 3-({[6-(2,3-dihydro-1H-indol-1-yl)-1,2,3,4-tetrahydronaphthalen-1-yl]methyl}amino)pyridine-4-carboxylic acid]
- IC50 [1]: 0.1 to 1 µM
- IC50 (JMJD2C): 1 to 10 µM

Structure (SMILES): O=C(O)c1ccncc1NC[C@@H]1CCCc2cc(Sc3ccc(F)cc3)ccc21 [Example 77, 3-({[(1R)-6-[(4-fluorophenyl)sulfanyl]-1,2,3,4-tetrahydronaphthalen-1-yl]methyl}amino)pyridine-4-carboxylic acid]
- IC50 [1]: ≤ 0.1 µM
- IC50 (JMJD2C): 0.1 to 1 µM

Structure (SMILES): COc1ccc(N(C)c2ccc3c(c2)CCC[C@H]3CNc2cnccc2C(=O)O)cc1 [Example 177, 3-({[(1R)-6-[(4-methoxyphenyl)(methyl)amino]-1,2,3,4-tetrahydronaphthalen-1-yl]methyl}amino)pyridine-4-carboxylic acid]
- IC50 [1]: ≤ 0.1 µM
- IC50 (JMJD2C): 0.1 to 1 µM

Structure (SMILES): CN(c1ccc2c(c1)COC2)c1ccc2c(c1)OCC[C@H]2CNc1cnccc1C(=O)O [Example 127, 3-({[(4R)-7-[(1,3-dihydro-2-benzofuran-5-yl)(methyl)amino]-3,4-dihydro-2H-1-benzopyran-4-yl]methyl}amino)pyridine-4-carboxylic acid]
- IC50 [1]: 0.1 to 1 µM
- IC50 (JMJD2C): 0.1 to 1 µM

Structure (SMILES): O=C(O)c1ccncc1NC[C@@H]1CCOc2cc(-c3ccccc3C(F)(F)F)ccc21 [Example 46, 3-({[(4R)-7-[2-(trifluoromethyl)phenyl]-3,4-dihydro-2H-1-benzopyran-4-yl]methyl}amino)pyridine-4-carboxylic acid]
- IC50 [1]: ≤ 0.1 µM
- IC50 (JMJD2C): 0.1 to 1 µM

Structure (SMILES): O=C(O)c1ccncc1NC[C@@H]1CCOc2cc(Oc3ccccc3)ccc21 [Example 48, 3-({[(4R)-7-phenoxy-3,4-dihydro-2H-1-benzopyran-4-yl]methyl}amino)pyridine-4-carboxylic acid]
- IC50 [1]: 1 to 10 µM
- IC50 (JMJD2C): 0.1 to 1 µM

Structure (SMILES): O=C(O)c1ccncc1NC[C@@H]1CCOc2cc(C3(c4ccccc4)CC3)ccc21 [Example 203, 3-({[(4R)-7-(1-phenylcyclopropyl)-3,4-dihydro-2H-1-benzopyran-4-yl]methyl}amino)pyridine-4-carboxylic acid]
- IC50 [1]: 0.1 to 1 µM
- IC50 (JMJD2C): 0.1 to 1 µM

Structure (SMILES): CN(c1ccc2c(c1)OCC[C@H]2CNc1cnccc1C(=O)O)c1ccc2ccoc2c1 [Example 141, 3-({[(4R)-7-[(1-benzofuran-6-yl)(methyl)amino]-3,4-dihydro-2H-1-benzopyran-4-yl]methyl}amino)pyridine-4-carboxylic acid]
- IC50 [1]: 0.1 to 1 µM
- IC50 (JMJD2C): 0.1 to 1 µM

Structure (SMILES): Cc1ccc(S(=O)(=O)c2ccc3c(c2)CCC[C@H]3CNc2cnccc2C(=O)O)cc1 [Example 84, 3-({[(1R)-6-(4-methylbenzenesulfonyl)-1,2,3,4-tetrahydronaphthalen-1-yl]methyl}amino)pyridine-4-carboxylic acid]
- IC50 [1]: > 10 µM
- IC50 (JMJD2C): 0.1 to 1 µM

Structure (SMILES): CCc1ccc2c(c1)CCC[C@H]2CNc1cnccc1C(=O)O [Example 91, 3-({[(1R)-6-ethyl-1,2,3,4-tetrahydronaphthalen-1-yl]methyl}amino)pyridine-4-carboxylic acid]
- IC50 [1]: 1 to 10 µM
- IC50 (JMJD2C): 0.1 to 1 µM

Structure (SMILES): Cc1cccc(Oc2ccc3c(c2)CCCC3CNc2cnccc2C(=O)O)n1 (stereo not drawn) [Example 56, 3-[({6-[(6-methylpyridin-2-yl)oxy]-1,2,3,4-tetrahydronaphthalen-1-yl}methyl)amino]pyridine-4-carboxylic acid]
- IC50 [1]: 1 to 10 µM
- IC50 (JMJD2C): 0.1 to 1 µM

Structure (SMILES): COc1ccc(N(C)c2ccc3c(c2)CCC[C@H]3CNc2cnccc2C(=O)O)cn1 [Example 13, 3-({[(1R)-6-[(6-methoxypyridin-3-yl)(methyl)amino]-1,2,3,4-tetrahydronaphthalen-1-yl]methyl}amino)pyridine-4-carboxylic acid]
- IC50 [1]: 0.1 to 1 µM
- IC50 (JMJD2C): 0.1 to 1 µM

Structure (SMILES): CN(c1ccc(C2=CCOCC2)cc1)c1ccc2c(c1)OCC[C@H]2CNc1cnccc1C(=O)O [Example 201, 3-({[(4R)-7-{[4-(3,6-dihydro-2H-pyran-4-yl)phenyl](methyl)amino}-3,4-dihydro-2H-1-benzopyran-4-yl]methyl}amino)pyridine-4-carboxylic acid]
- IC50 [1]: ≤ 0.1 µM
- IC50 (JMJD2C): 0.1 to 1 µM

Structure (SMILES): COc1cccc(N(C)c2ccc3c(c2)CCC[C@H]3CNc2cnccc2C(=O)O)c1 [Example 150, 3-({[(1R)-6-[(3-methoxyphenyl)(methyl)amino]-1,2,3,4-tetrahydronaphthalen-1-yl]methyl}amino)pyridine-4-carboxylic acid]
- IC50 [1]: ≤ 0.1 µM
- IC50 (JMJD2C): 0.1 to 1 µM

Structure (SMILES): CN(c1cc(F)cc(F)c1)c1ccc2c(c1)OCC[C@H]2CNc1cnccc1C(=O)O [Example 109, 3-({[(4R)-7-[(3,5-difluorophenyl)(methyl)amino]-3,4-dihydro-2H-1-benzopyran-4-yl]methyl}amino)pyridine-4-carboxylic acid]
- IC50 [1]: 0.1 to 1 µM
- IC50 (JMJD2C): 0.1 to 1 µM

Structure (SMILES): Cc1cccc(N(C)c2ccc3c(c2)OCC[C@H]3CNc2cnccc2C(=O)O)c1 [Example 105, 3-({[(4R)-7-[methyl(3-methylphenyl)amino]-3,4-dihydro-2H-1-benzopyran-4-yl]methyl}amino)pyridine-4-carboxylic acid]
- IC50 [1]: ≤ 0.1 µM
- IC50 (JMJD2C): 0.1 to 1 µM

Structure (SMILES): Cc1cc(N(C)c2ccc3c(c2)CCC[C@H]3CNc2cnccc2C(=O)O)no1 [Example 171, 3-({[(1R)-6-[methyl(5-methyl-1,2-oxazol-3-yl)amino]-1,2,3,4-tetrahydronaphthalen-1-yl]methyl}amino)pyridine-4-carboxylic acid]
- IC50 [1]: > 10 µM
- IC50 (JMJD2C): 1 to 10 µM

Structure (SMILES): Cc1cccc(S(=O)(=O)c2ccc3c(c2)CCC[C@H]3CNc2cnccc2C(=O)O)c1 [Example 86, 3-({[(1R)-6-(3-methylbenzenesulfonyl)-1,2,3,4-tetrahydronaphthalen-1-yl]methyl}amino)pyridine-4-carboxylic acid]
- IC50 [1]: > 10 µM
- IC50 (JMJD2C): 0.1 to 1 µM

Structure (SMILES): O=C(O)c1ccncc1NCC1CCCc2cc(Sc3ccccn3)ccc21 (stereo not drawn) [Example 80, 3-({[6-(pyridin-2-ylsulfanyl)-1,2,3,4-tetrahydronaphthalen-1-yl]methyl}amino)pyridine-4-carboxylic acid]
- IC50 [1]: 1 to 10 µM
- IC50 (JMJD2C): 0.1 to 1 µM

Structure (SMILES): CN(c1cccc(C#N)c1)c1ccc2c(c1)CCC[C@H]2CNc1cnccc1C(=O)O [Example 115, 3-({[(1R)-6-[(3-cyanophenyl)(methyl)amino]-1,2,3,4-tetrahydronaphthalen-1-yl]methyl}amino)pyridine-4-carboxylic acid]
- IC50 [1]: 0.1 to 1 µM
- IC50 (JMJD2C): 0.1 to 1 µM

Structure (SMILES): CN1CCC(c2ccc(N(C)c3ccc4c(c3)OCC[C@H]4CNc3cnccc3C(=O)O)cc2)CC1 [Example 205, 3-({[(4R)-7-{methyl[4-(1-methylpiperidin-4-yl)phenyl]amino}-3,4-dihydro-2H-1-benzopyran-4-yl]methyl}amino)pyridine-4-carboxylic acid]
- IC50 [1]: > 10 µM
- IC50 (JMJD2C): ≤ 0.1 µM

Structure (SMILES): CN(c1ccc2c(c1)CCC[C@H]2CNc1cnccc1C(=O)O)c1ccn(C)n1 [Example 125, 3-({[(1R)-6-[methyl(1-methyl-1H-pyrazol-3-yl)amino]-1,2,3,4-tetrahydronaphthalen-1-yl]methyl}amino)pyridine-4-carboxylic acid]
- IC50 [1]: 0.1 to 1 µM
- IC50 (JMJD2C): 0.1 to 1 µM

Structure (SMILES): CN(c1cccc(C#N)c1)c1ccc2c(c1)OCC[C@H]2CNc1cnccc1C(=O)O [Example 117, 3-({[(4R)-7-[(3-cyanophenyl)(methyl)amino]-3,4-dihydro-2H-1-benzopyran-4-yl]methyl}amino)pyridine-4-carboxylic acid]
- IC50 [1]: 0.1 to 1 µM
- IC50 (JMJD2C): 0.1 to 1 µM

Structure (SMILES): COc1cc(N(C)c2ccc3c(c2)CCC[C@H]3CNc2cnccc2C(=O)O)ccc1F [Example 114, 3-({[(1R)-6-[(4-fluoro-3-methoxyphenyl)(methyl)amino]-1,2,3,4-tetrahydronaphthalen-1-yl]methyl}amino)pyridine-4-carboxylic acid]
- IC50 [1]: 0.1 to 1 µM
- IC50 (JMJD2C): 0.1 to 1 µM
